Source: patent publication US20060079453A1, “Hla binding peptides and their uses” (priority 2002, published 2006)
Read-outs that look alike come from different tables or passages of the source. No end group written: not given here.

Assays:
Experiment in all cases: biochemical
Type in all cases: binding
[1] = target: HLA-B*1801 (Homo sapiens, UniProt P01889, A329T/A93T/A95T/C349S/D201E/D54G/D98Y/E176V/E187T/E204Q/E69T/K202T/Q94N/R155S/R180L/S121R/V306I/Y140S/Y195H/Y33H/Y91S)
[2] = target: HLA-B*4001 (Homo sapiens, UniProt P01889, A65T/A93T/A95T/D138N/D98Y/E176V/E69K/N87E/Q56L/Q94N/R180L/S121R/S35A/S48T/T167S/V36M/W171L/Y33H/Y91S)
[3] = target: HLA-B*4403 (Homo sapiens, UniProt P01889, A223V/A65T/A93T/A95T/D201E/D98Y/E176V/E187L/E204Q/E69K/G107R/H137Y/K202T/L105A/L119I/N104T/N87E/Q56L/Q94N/R106L/R155S/R180L/S101N/S121R/S35A/S48T/T118I/V36M/W191S/Y140D/Y91S)
[4] = target: HLA-B*4501 (Homo sapiens, UniProt P01889, A329T/A65T/A93T/A95T/C349S/D138N/D201E/D98Y/E176V/E187L/E204Q/E69K/H137Y/K202T/L119W/N87E/Q56L/Q94N/R155S/R180D/S121R/S35A/S48T/V127L/V306I/V36M/W191S/Y140L/Y33H/Y91S)
[5] = target: HLA-B*4402 (Homo sapiens, UniProt P01889, A223V/A65T/A93T/A95T/D201E/D98Y/E176V/E187L/E204Q/E69K/G107R/H137Y/K202T/L105A/L119I/N104T/N87E/Q56L/Q94N/R106L/R155S/R180D/S101N/S121R/S35A/S48T/T118I/V36M/W191S/Y140D/Y91S)
[6] = target: HLA-B*4002 (Homo sapiens, UniProt P01889, A65T/A93T/A95T/D138N/D201E/D98Y/E176V/E204Q/E69K/K202T/N87E/Q56L/Q94N/R180L/S48T/Y33H/Y91S)
[7] = target: HLA-DR DRB1*0405 (DR4) (Homo sapiens, UniProt P01903+P01911, A100R/A169T/D86S/F76Y/I96L/K127E/L162R/M171V/N62H/P40V/Q125Y/R42H/S133A/S149N/S66Y/V115G/V209L/W38E); conditions: DRB1 *0405
[8] = target: HLA-DR DRB1*0901 (DR9) (Homo sapiens, UniProt P01903+P01911, A100R/A103E/D57H/D86V/F55Y/F60I/F76Y/I96F/K127E/L162R/M171V/P40D/Q125H/Q99R/R33Q/R42F/S133A/S66N/T210M/V115G/W38K/Y107V/Y59G/Y89S); conditions: DRB1 *0901
[9] = target: HLA-DR DRB1*0301 (DR3) (Homo sapiens, UniProt P01903+P01911, A100K/A102G/A103R/A169T/F55Y/I96L/K41T/L162R/M171V/P40S/Q125H/Q178H/Q39Y/R42S/S66N/T106N/T262R/W38E/Y61H)
[10] = target: HLA-DR DRB1*0401 (DR4) (Homo sapiens, UniProt P01903+P01911, A100K/A169T/F76Y/I96L/K127E/L162R/M171V/N62H/P40V/Q125Y/R42H/S133A/S149N/S66Y/V115G/V209L/W38E); conditions: DRB1 *0401
[11] = target: HLA-DR DRB5*0101 (DR51) (Homo sapiens, UniProt P01903+Q30154); conditions: DRB5 *0101
[12] = target: HLA-DR DRB3*0101 (DR52) (Homo sapiens, UniProt P01903+P79483)
[13] = target: HLA-DR DRB1*1501 (DR15) (Homo sapiens, UniProt P01903+P01911); conditions: DRBI *1501
[14] = target: HLA-DR DRB1*0101 (DR1) (Homo sapiens, UniProt P01903+P01911, A100R/D57E/F55L/F60I/F76Y/I96L/L162R/M171V/P40L/Q125E/R42F/V115G/Y59C); conditions: DRB1 *0101
[15] = target: HLA-DR DRB1*1302 (DR13) (Homo sapiens, UniProt P01903+P01911, A100E/A169T/K41T/L162R/M171V/P40S/Q125H/Q178H/Q39Y/Q99D/R42S/S66N/T262R/V115G/W38E/Y61H); conditions: DRBI *1302
[16] = target: HLA-DR DRB1*0802 (DR8) (Homo sapiens, UniProt P01903+P01911, A100R/A103L/A169T/F76Y/H45Y/I96F/K41T/L162R/M171V/P40S/Q125H/Q178H/Q39Y/Q99D/R218S/R42G/S66Y/V115G/W38E)
[17] = target: HLA-DR DRB1*1101 (DR11) (Homo sapiens, UniProt P01903+P01911, A100R/A169T/A87E/I96F/K41T/L162R/M171V/P40S/Q125H/Q178H/Q39Y/Q99D/R42S/S66Y/T262R/V115G/W38E); conditions: DRB1 *1101
[18] = target: HLA-DR DRB1*0701 (DR7) (Homo sapiens, UniProt P01903+P01911, A100R/A102G/A103Q/D57E/D86V/E43K/F76Y/K127E/L162R/M171V/P40G/Q125H/Q99D/R33Q/R42Y/R54Q/S133A/S66F/T210M/V115G/Y107V/Y59L/Y89S); conditions: DRB1 *0701

Chain of HLA-DR DRB1*1101 (DR11) (P01903 26-254 limits assumed, other chains not shown): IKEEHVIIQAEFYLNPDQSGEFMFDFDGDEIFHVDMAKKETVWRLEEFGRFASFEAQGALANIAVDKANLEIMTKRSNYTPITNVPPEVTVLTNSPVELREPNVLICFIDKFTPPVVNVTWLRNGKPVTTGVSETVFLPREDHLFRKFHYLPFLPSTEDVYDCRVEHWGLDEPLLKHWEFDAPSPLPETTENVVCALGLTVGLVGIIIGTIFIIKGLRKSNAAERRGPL
Chain of HLA-DR DRB1*1302 (DR13) (P01903 26-254 limits assumed, other chains not shown): as above
Chain of HLA-DR DRB1*0301 (DR3) (P01903 26-254 limits assumed, other chains not shown): as above

| Compound | IC50 [1] [µM] | IC50 [2] [µM] | IC50 [3] [µM] | IC50 ([3]; B*4403) [µM] | IC50 [6] [µM] | IC50 [5] [µM] | also measured |
| --- | --- | --- | --- | --- | --- | --- | --- |
| AENLWVTVW | 22.6 | 1.3 | 0.324 |  |  |  | IC50 [4]: 0.204 µM |
| AEMGKFKYSF |  |  |  | 0.031 |  |  | IC50 ([1]; B*1801): 0.155 µM; IC50 ([5]; B*4402): 0.018 µM; IC50 ([6]; B*4002): 0.0038 µM |
| AEPLWVTVY | 0.31 | 1.73 | 0.096 |  | 2.48 |  |  |
| AEMGKGSFKY |  |  |  | 0.09 |  |  | IC50 ([1]; B*1801): 1.62 µM; IC50 ([2]; B*4001): 6.43 µM; IC50 ([6]; B*4002): 3.82 µM; IC50 ([4]; B*4501): 0.305 µM |
| TEPAAVGVGAV |  |  |  | 0.459 |  |  | IC50 ([1]; B*1801): > 8.12 µM; IC50 ([2]; B*4001): 0.93 µM; IC50 ([4]; B*4501): 8.24 µM |
| AENLWVTVR | 33 |  | 1.47 |  | 1.74 |  | IC50 [4]: 0.233 µM |
| AENLWTTVY |  | 0.246 | 0.05 |  |  | 0.051 |  |
| LWQLNGRLEYTLKDR |  |  |  | 0.00011 |  |  | IC50 [7]: 0.094 µM; IC50 [8]: 16.6 µM; IC50 [9]: 0.511 µM; IC50 [10]: 0.757 µM; IC50 [11]: 6 µM; IC50 [12]: 4.4 µM; IC50 [13]: 0.853 µM; IC50 [14]: 0.698 µM; IC50 [15]: 2.45 µM; IC50 [16]: 43.3 µM; IC50 [17]: 6.52 µM; IC50 [18]: 20.2 µM |
| ATNLWVTVY |  |  |  |  |  |  | IC50 ([1]; read-out: B*1801): 17.6 µM; IC50 ([2]; read-out: B*4001): 0.487 µM; IC50 ([6]; read-out: B*4002): > 155 µM; IC50 ([3]; read-out: B*4403): > 43 µM; IC50 ([4]; read-out: B*4501): > 49 µM |
| AEGIVTGQY |  |  |  | 0.012 |  |  | IC50 ([1]; B*1801): 7.18 µM; IC50 ([5]; B*4402): 0.255 µM; IC50 ([2]; B*4001): 6.46 µM; IC50 ([4]; B*4501): 0.418 µM |
| SEAIHTFQY |  |  |  | 0.016 |  |  | IC50 ([1]; B*1801): 0.025 µM; IC50 ([5]; B*4402): 0.018 µM; IC50 ([2]; B*4001): 2.9 µM; IC50 ([6]; B*4002): 1.8 µM |
| GEFGGYGSV |  |  |  | 0.534 |  |  | IC50 ([5]; B*4402): 2.34 µM; IC50 ([6]; B*4002): 0.0064 µM; IC50 ([4]; B*4501): 0.04 µM |
| AENLWVTVI | 11.2 | 0.014 | 0.088 |  | 0.0073 |  | IC50 [4]: 0.054 µM |
| AENPWVTVY | 0.027 |  | 0.053 |  | 0.224 | 0.018 |  |
| KEKGGLDGL |  |  |  | > 10.5 |  |  | IC50 ([1]; B*1801): > 22.8 µM; IC50 ([5]; B*4402): > 81.4 µM; IC50 ([2]; B*4001): 0.055 µM; IC50 ([4]; B*4501): 9.93 µM |
| AEVLWVTVY |  | 1.55 | 0.39 |  | 0.436 | 1.52 |  |
| AENLWVTNY | 0.73 | 0.865 | 0.074 |  | 0.948 |  |  |
| AENLWLTVY | 0.666 | 1.7 | 0.226 |  | 0.884 | 0.647 |  |
| GEISPYPSL | 19.4 | 0.024 | 0.293 |  | 0.0018 |  |  |
| AENLWKTVY | 0.913 | 0.85 | 0.383 |  | 0.406 |  |  |

| Compound | IC50 [1] [µM] | IC50 [2] [µM] | IC50 [3] [µM] | IC50 ([3]; B*4403) [µM] | IC50 [6] [µM] | IC50 [5] [µM] | also measured |
| --- | --- | --- | --- | --- | --- | --- | --- |
| AENTWVTVY | 0.213 | 1.45 | 0.166 |  |  | 0.386 | IC50 [4]: 0.442 µM |
| AENLWVNVY |  |  | 0.076 |  |  | 0.159 | IC50 [4]: 0.266 µM |
| AENDWVTVY | 0.324 | 0.954 | 0.165 |  |  | 0.096 |  |
| AEIPTRVNY |  |  |  | 0.023 |  |  | IC50 ([1]; B*1801): 1.69 µM; IC50 ([2]; B*4001): 7.83 µM; IC50 ([6]; B*4002): 5.44 µM |
| AENLWNTVY | 0.336 | 1.34 | 0.081 |  | 0.957 | 0.066 |  |
| AENLWFTVY | 0.36 | 0.699 | 0.062 |  | 0.668 |  | IC50 [4]: 0.09 µM |
| CC[C@H](C)[C@H](NC(=O)[C@@H](NC(=O)[C@H](CS)NC(=O)[C@@H](NC(=O)[C@@H]1CCCN1C(=O)[C@@H]1CCCN1C(=O)[C@H](CCC(N)=O)NC(=O)[C@@H]1CCCN1C(=O)[C@H](CC(C)C)NC(=O)[C@H](CCCNC(=N)N)NC(=O)[C@H](CCC(=O)O)NC(=O)CN)[C@@H](C)CC)[C@@H](C)O)C(=O)O |  |  |  | 0.0025 |  |  | IC50 ([6]; B*4002): 0.0039 µM |
| AENLWDTVY | 0.775 | 1.14 | 0.068 |  | 2.09 |  |  |
| AETFYVDGA |  |  |  | 6.92 |  |  | IC50 ([1]; B*1801): > 6.71 µM; IC50 ([5]; B*4402): > 21.2 µM; IC50 ([2]; B*4001): 21.6 µM; IC50 ([4]; B*4501): 0.038 µM |
| AENLDVTVY |  | 0.22 | 0.34 |  | 12.1 | 0.673 |  |
| NENLWVTVY | 0.038 | > 72.7 | 0.224 |  | 11.8 | 0.453 |  |
| AENLTVTVY |  | 0.689 | 0.208 |  |  | 0.327 | IC50 [4]: 0.793 µM |
| AENLWVDVY | 0.415 | 0.7 | 0.092 |  | 3.44 | 0.334 |  |
| SEAIYTFQF |  |  |  | 0.02 |  |  | IC50 ([1]; B*1801): 0.0057 µM; IC50 ([5]; B*4402): 0.0048 µM; IC50 ([2]; B*4001): 0.967 µM; IC50 ([4]; B*4501): 0.293 µM |
| AENLKVTVY | 0.138 | 7.75 | 0.487 |  |  | 0.253 | IC50 [4]: 9.62 µM |
| AENLWVTVL | 6.2 | 0.014 | 0.208 |  | 0.013 | 0.068 |  |
| AENLWVFVY |  | 0.857 | 0.31 |  |  | 0.348 |  |
| AENLVVTVY | 0.062 | 0.876 | 0.203 |  | 1.34 |  | IC50 [4]: 0.718 µM |
| AENLWVTPY | 0.041 | 0.274 | 0.044 |  |  | 0.127 | IC50 [4]: 0.122 µM |
